Assay results reported in ChEMBL document CHEMBL1795209, “1-Chloro-2-formyl indenes and tetralenes as antitubercular agents” (Bioorg Med Chem Lett, 2011).
Values after ≈ are worked out from the molar mass of the structure shown. Active and inactive are the calls of the source. No cut-off for these calls is given here.

Experiments:
[1] = tested on: Mycobacterium tuberculosis; experiment: Antitubercular activity against Mycobacterium tuberculosis H37Rv at 500 ug/ml by Bactec 460 method; type: functional, organism-based
[2] = tested on: Mycobacterium tuberculosis; experiment: Antitubercular activity against Mycobacterium tuberculosis H37Rv by Bactec 460 method; type: functional
[3] = tested on: Mus musculus; experiment: Acute toxicity in Swiss albino mouse assessed as change in creatinine level at 5 to 300 mg/kg, po administered as single dose; type: organism-based; set-up: dose 5-300 mg/kg, route oral; conditions: in vivo
[4] = tested on: Mus musculus; experiment: Acute toxicity in Swiss albino mouse assessed as change in total RBC at 5 to 300 mg/kg, po administered as single dose; type: organism-based; set-up: dose 5-300 mg/kg, route oral; conditions: in vivo
[5] = tested on: Mus musculus; experiment: Acute toxicity in Swiss albino mouse assessed as change in differential leukocyte count at 5 to 300 mg/kg, po administered as single dose; type: organism-based; set-up: dose 5-300 mg/kg, route oral; conditions: in vivo
[6] = tested on: Mus musculus; experiment: Acute toxicity in Swiss albino mouse assessed as change in absolute and relative weight of the organs at 5 to 300 mg/kg, po administered as single dose; type: organism-based; set-up: dose 5-300 mg/kg, route oral; conditions: in vivo
[7] = tested on: Mus musculus; experiment: Acute toxicity in Swiss albino mouse assessed as change in SGOT level at 5 to 300 mg/kg, po administered as single dose; type: organism-based; set-up: dose 5-300 mg/kg, route oral; conditions: in vivo
[8] = tested on: Mus musculus; experiment: Acute toxicity in Swiss albino mouse assessed as change in SGPT level at 5 to 300 mg/kg, po administered as single dose; type: organism-based; set-up: dose 5-300 mg/kg, route oral; conditions: in vivo
[9] = tested on: Mus musculus; experiment: Acute toxicity in Swiss albino mouse assessed as change in serum total cholesterol level at 5 to 300 mg/kg, po administered as single dose; type: organism-based; set-up: dose 5-300 mg/kg, route oral; conditions: in vivo
[10] = tested on: Mus musculus; experiment: Acute toxicity in Swiss albino mouse assessed as observational changes at 5 to 300 mg/kg, po administered as single dose; type: organism-based; set-up: dose 5-300 mg/kg, route oral; conditions: in vivo
[11] = tested on: Mus musculus; experiment: Acute toxicity in Swiss albino mouse assessed as change in total WBC count at 5 to 300 mg/kg, po administered as single dose; type: organism-based; set-up: dose 5-300 mg/kg, route oral; conditions: in vivo
[12] = tested on: Mus musculus; experiment: Acute toxicity in Swiss albino mouse assessed as change in triglyceride level at 5 to 300 mg/kg, po administered as single dose; type: organism-based; set-up: dose 5-300 mg/kg, route oral; conditions: in vivo
[13] = Acute toxicity in po dosed Swiss albino mouse administered as single dose; type: organism-based; conditions: in vivo
[14] = tested on: Mus musculus; experiment: Acute toxicity in Swiss albino mouse assessed as morbidity at 5 to 300 mg/kg, po administered as single dose; type: organism-based; set-up: dose 5-300 mg/kg, route oral; conditions: in vivo
[15] = tested on: Mus musculus; experiment: Acute toxicity in Swiss albino mouse assessed as change in hemoglobin level at 5 to 300 mg/kg, po administered as single dose; type: organism-based; set-up: dose 5-300 mg/kg, route oral; conditions: in vivo
[16] = tested on: Mus musculus; experiment: Acute toxicity in Swiss albino mouse assessed as mortality at 5 to 300 mg/kg, po administered as single dose; type: organism-based; set-up: dose 5-300 mg/kg, route oral; conditions: in vivo

SMILES	MIC [2] [µg/mL]	also measured
COc1cc(C2C(C=O)=C(Cl)c3cc(OC)c(OC)c(OC)c32)cc(OC)c1OC (configuration not stated)	–	Activity [1]: inactive
O=CC1=C(Cl)c2ccccc2C1c1ccccc1 (configuration not stated)	250 (≈ 981 µM)	–
CO[C@H]1/C=C/O[C@@]2(C)Oc3c(C)c(O)c4c(O)c(c(/C=N/N5CCN(C)CC5)c(O)c4c3C2=O)NC(=O)/C(C)=C\C=C\[C@H](C)[C@H](O)[C@@H](C)[C@@H](O)[C@@H](C)[C@H](OC(C)=O)[C@@H]1C [RIFAMPIN]	2 (≈ 2.43 µM)	–
COc1ccc2c(c1)CCCC2OC(C)=O (configuration not stated)	30 (≈ 136 µM)	–
O=CC1=C(Cl)c2ccccc2CC1	60 (≈ 311 µM)	–
O=CC1=C(Cl)c2cc3c(cc2C1)OCO3	125 (≈ 561 µM)	–
COc1ccc2c(c1)CCC/C2=N\O	500 (≈ 2610 µM)	–
COc1ccc2c(c1)C(Cl)=C(C=O)C1C2CC[C@@]2(C)C1CC[C@@H]2OC(C)=O (some centres not stated)	–	Activity [1]: inactive
O=CC1=C(Cl)c2ccc(Cl)cc2C1	125 (≈ 587 µM)	–
CC1CC(C=O)=C(Cl)c2ccccc21 (configuration not stated)	125 (≈ 605 µM)	–
COc1cc2c(cc1C=O)C=CCC2	500 (≈ 2660 µM)	–
COc1ccc2c(c1)CCC(CO)=C2Cl	500 (≈ 2230 µM)	–
Cc1cc(O)c2c(c1)[C@H](O)CCC2=O [SHINANOLONE]	100 (≈ 520 µM)	–
O=Cc1cc2ccccc2c(Cl)c1C=O	500 (≈ 2290 µM)	–
COc1ccc2c(c1)CCC(OC=O)=C2Cl	30 (≈ 126 µM)	Activity [3]: Non-toxic; Activity [4]: Non-toxic; Activity [5]: Non-toxic; Activity [6]: Non-toxic; Activity [7]: Non-toxic; Activity [8]: Non-toxic; Activity [9]: Non-toxic; Activity [10]: Non-toxic; Activity [11]: Non-toxic; Activity [12]: Non-toxic; MTD [13]: 300 mg/kg; Activity [14]: Non-toxic; Activity [15]: Non-toxic; Activity [16]: Non-toxic
CO[C@H]1CCC(=O)c2cccc(O)c21	6.25 (≈ 32.5 µM)	–
COc1ccc2c(c1)CC(C=O)=C2Cl	125 (≈ 599 µM)	–
CN[C@@H]1[C@H](O[C@H]2[C@H](O[C@H]3[C@H](O)[C@@H](O)[C@H](N=C(N)N)[C@@H](O)[C@@H]3N=C(N)N)O[C@@H](C)[C@]2(O)C=O)O[C@@H](CO)[C@H](O)[C@H]1O [STREPTOMYCIN]	2 (≈ 3.44 µM)	–
Cc1ccc2c(c1)CC(C=O)=C2Cl	250 (≈ 1300 µM)	–
COc1ccc2c(c1)CCCC2	125 (≈ 771 µM)	–
COc1ccc2c(c1)CCCC2O (configuration not stated)	–	Activity [1]: inactive
Cc1cccc2c1C(Cl)=C(C=O)C2	125 (≈ 649 µM)	–
COc1ccc2c(c1)CCC(C=O)=C2Cl	125 (≈ 561 µM)	–
